The values below come from US11178868B2, “Alkynyl-substituted 3-phenylpyrrolidine-2,4-diones and use thereof as herbicides” (Bayer CropScience Aktiengesellschaft, priority 2015, dated 2021).

Each structure is given as a SMILES string.

Holding throughout (assay type): in vivo
For one test, the system named is Amaranthus retroflexus. The test can be described thus: Post-emergence herbicidal effect. Conditions: 80 g a.i./ha, assessed visually after about 3 weeks. The procedure:
(§1) Seeds of monocotyledonous and dicotyledonous weed and crop plants are laid out in sandy loam in wood-fibre pots, covered with soil and cultivated in a greenhouse under good growth conditions. 2 to 3 weeks after sowing, the test plants are treated at the one-leaf stage. The compounds according to the invention, formulated in the form of wettable powders (WP) or as emulsion concentrates (EC), are then sprayed as aqueous suspension or emulsion at a water application rate of 600 to 800 I/ha (converted) with the addition of 0.2% of wetting agent onto the green parts of the plants. After the test plants have been left to stand in the greenhouse under optimal growth conditions for about 3 weeks, the action of the preparations is assessed visually in comparison to untreated controls (herbicidal action in percent (%): 100% activity=the plants have died, 0% activity=like control plants).

Test [1] has as its system Setaria viridis. Description: Post-emergence herbicidal effect. The settings on record: assessed visually after about 3 weeks. The procedure:
as §1

For test [2], the system named is Echinochloa crus-galli. The test can be described thus: Post-emergence herbicidal effect. Conditions: assessed visually after about 3 weeks. How it is done: as §1
Test [3] relates to Lolium multiflorum. Description: Post-emergence herbicidal effect. The settings on record: assessed visually after about 3 weeks. How it is done:
as §1

Test [4] relates to Avena fatua. The test can be described thus: Post-emergence herbicidal effect. Conditions: assessed visually after about 3 weeks. The procedure: as §1
For test [5], the system named is Alopecurus myosuroides. The test can be described thus: Post-emergence herbicidal effect. The settings on record: assessed visually after about 3 weeks. The procedure:
as §1

Test [6] deals with Setaria viridis. Description: Pre-emergence herbicidal effect. The settings on record: scored visually after 3 weeks. From the text:
(§2) Seeds of monocotyledonous and dicotyledonous weed plants and crop plants are laid out in wood-fibre pots in sandy loam and covered with soil. The compounds according to the invention formulated in the form of wettable powders (WP) or as emulsion concentrates (EC) are then applied as aqueous suspension or emulsion at a water application rate of 600 to 800 I/ha (converted) with the addition of 0.2% wetting agent to the surface of the covering soil. After the treatment, the pots are placed in a greenhouse and kept under good growth conditions for the trial plants. The damage to the test plants is scored visually after a test period of 3 weeks by comparison with untreated controls (herbicidal activity in percent (%): 100% activity=the plants have died, 0% activity=like control plants).

The subject of test [7] is Echinochloa crus-galli. The test can be described thus: Pre-emergence herbicidal effect. The settings on record: scored visually after 3 weeks.
From the text: as §2

For test [8], the system named is Lolium multiflorum. The test can be described thus: Pre-emergence herbicidal effect. The settings on record: scored visually after 3 weeks.
From the text: as §2

In test [9] the test system is Avena fatua. The test can be described thus: Pre-emergence herbicidal effect. The settings on record: scored visually after 3 weeks.
From the text: as §2

For test [10], the system named is Alopecurus myosuroides. Description: Pre-emergence herbicidal effect. Conditions: scored visually after 3 weeks.
From the text: as §2

A further test has as its system Cyperus esculentus. Description: Pre-emergence herbicidal effect. Conditions: 320 g a.i./ha, scored visually after 3 weeks.
From the text: as §2

In the case of `CC#Cc1cc(CC)c(C2=C(OC(=O)OCC)C3(CCCC(OCC)C3)NC2=O)c(CC)c1` (single isomer, unassigned) [Example P4], in the test with Amaranthus retroflexus, the “Herbicidal effect against [%] AMARE” value amounted to 80%. Further, the “Herbicidal effect against [%] SETVI” value with Setaria viridis [1] (20 g a.i./ha), with Setaria viridis [1] (80 g a.i./ha), in the test with Setaria viridis [6] (80 g a.i./ha) and in the test with Setaria viridis [6] (320 g a.i./ha) was 100% throughout. The “Herbicidal effect against [%] ECHCG” value with Echinochloa crus-galli [2] (20 g a.i./ha), in the test with Echinochloa crus-galli [2] (80 g a.i./ha), with Echinochloa crus-galli [7] (80 g a.i./ha) and in the test on Echinochloa crus-galli [7] (320 g a.i./ha) was 100% throughout. Further, the “Herbicidal effect against [%] LOLMU” value in the test with Lolium multiflorum [3] (20 g a.i./ha), in the test on Lolium multiflorum [3] (80 g a.i./ha), in the test with Lolium multiflorum [8] (80 g a.i./ha) and in the test on Lolium multiflorum [8] (320 g a.i./ha) was 100% throughout. Besides, the “Herbicidal effect against [%] AVEFA” value in the test with Avena fatua [4] (80 g a.i./ha), with Avena fatua [9] (80 g a.i./ha) and in the test on Avena fatua [9] (320 g a.i./ha) was 100% in each case. The “Herbicidal effect against [%] ALOMY” value in the test with Alopecurus myosuroides [5] (80 g a.i./ha), with Alopecurus myosuroides [10] (80 g a.i./ha) and with Alopecurus myosuroides [10] (320 g a.i./ha) was 100% each time.

On to `CC#Cc1cc(C)c(C2=C(O)C3(CCCC(OCCC)C3)NC2=O)c(C)c1` (centres unmarked) [Example D3, 3-[2,6-Dimethyl-4-(prop-1-yn-1-yl)phenyl]-4-hydroxy-7-propoxy-1-azaspiro[4.5]dec-3-en-2-one], for which the “Herbicidal effect against [%] AMARE” value in the test with Amaranthus retroflexus amounted to 90%. Moreover, the “Herbicidal effect against [%] SETVI” value was determined as 80% in the test with Setaria viridis [1] (20 g a.i./ha), 100% in the test with Setaria viridis [1] (80 g a.i./ha), 100% with Setaria viridis [6] (80 g a.i./ha) and 100% in the test with Setaria viridis [6] (320 g a.i./ha). Further, the “Herbicidal effect against [%] ECHCG” value in the test with Echinochloa crus-galli [2] (20 g a.i./ha), with Echinochloa crus-galli [2] (80 g a.i./ha), in the test with Echinochloa crus-galli [7] (80 g a.i./ha) and in the test on Echinochloa crus-galli [7] (320 g a.i./ha) was 100% in each case. The “Herbicidal effect against [%] LOLMU” value was found to be 80% in the test with Lolium multiflorum [3] (20 g a.i./ha), 100% in the test with Lolium multiflorum [3] (80 g a.i./ha), 100% in the test with Lolium multiflorum [8] (80 g a.i./ha) and 100% in the test on Lolium multiflorum [8] (320 g a.i./ha). Moreover, the “Herbicidal effect against [%] AVEFA” value in the test on Avena fatua [4] (80 g a.i./ha) is 90%; with Avena fatua [9] (80 g a.i./ha), 80%; in the test on Avena fatua [9] (320 g a.i./ha), 100%. Also, the “Herbicidal effect against [%] ALOMY” value in the test on Alopecurus myosuroides [10] (80 g a.i./ha) and in the test on Alopecurus myosuroides [10] (320 g a.i./ha) was 100% throughout.

Turning to `C#Cc1cc(C)c(C2=C(O)C3(CCCC(OCCCC)C3)NC2=O)c(C)c1` (centres unmarked) [Example D4], in the test with Setaria viridis [6] (320 g a.i./ha), the “Herbicidal effect against [%] SETVI” value worked out at 80%. In the test on Echinochloa crus-galli [7] (320 g a.i./ha), the “Herbicidal effect against [%] ECHCG” value was determined as 100%. In the test with Lolium multiflorum [8] (320 g a.i./ha), the “Herbicidal effect against [%] LOLMU” value came to 80%. Also, the “Herbicidal effect against [%] CYPES” value with Cyperus esculentus amounted to 100%.

Regarding `CC#Cc1cc(C)c(C2=C(O)C3(CCCC(OCCOC)C3)NC2=O)c(CC)c1` (centres unmarked) [Example D8], the “Herbicidal effect against [%] SETVI” value in the test on Setaria viridis [1] (20 g a.i./ha), with Setaria viridis [1] (80 g a.i./ha), in the test with Setaria viridis [6] (80 g a.i./ha) and in the test on Setaria viridis [6] (320 g a.i./ha) was 100% each time. In addition, the “Herbicidal effect against [%] ECHCG” value in the test on Echinochloa crus-galli [2] (20 g a.i./ha), in the test with Echinochloa crus-galli [2] (80 g a.i./ha), with Echinochloa crus-galli [7] (80 g a.i./ha) and in the test with Echinochloa crus-galli [7] (320 g a.i./ha) was 100% in each case. In addition, the “Herbicidal effect against [%] LOLMU” value in the test with Lolium multiflorum [3] (20 g a.i./ha), with Lolium multiflorum [3] (80 g a.i./ha), in the test with Lolium multiflorum [8] (80 g a.i./ha) and in the test with Lolium multiflorum [8] (320 g a.i./ha) was 100% throughout. Besides, the “Herbicidal effect against [%] AVEFA” value with Avena fatua [4] (20 g a.i./ha), with Avena fatua [4] (80 g a.i./ha), in the test with Avena fatua [9] (80 g a.i./ha) and with Avena fatua [9] (320 g a.i./ha) was 100% each time. The “Herbicidal effect against [%] ALOMY” value with Alopecurus myosuroides [5] (20 g a.i./ha), in the test on Alopecurus myosuroides [5] (80 g a.i./ha), in the test with Alopecurus myosuroides [10] (80 g a.i./ha) and in the test on Alopecurus myosuroides [10] (320 g a.i./ha) was 100% throughout. The “Herbicidal effect against [%] CYPES” value in the test on Cyperus esculentus is listed as 100%.
